Reference: ChEMBL document CHEMBL4219148, “Discovery of a highly potent orally bioavailable imidazo-[1, 2-a]pyrazine Aurora inhibitor” (Bioorg Med Chem Lett, 2018)

Columns and labels:
Aurora kinase A = target: T1, Aurora kinase A (Homo sapiens, UniProt O14965); assay: Inhibition of Aurora A (unknown origin) using Tamra-PKAtide as substrate by fluorescence polarization assay
T1 sequence (O14965 whole entry): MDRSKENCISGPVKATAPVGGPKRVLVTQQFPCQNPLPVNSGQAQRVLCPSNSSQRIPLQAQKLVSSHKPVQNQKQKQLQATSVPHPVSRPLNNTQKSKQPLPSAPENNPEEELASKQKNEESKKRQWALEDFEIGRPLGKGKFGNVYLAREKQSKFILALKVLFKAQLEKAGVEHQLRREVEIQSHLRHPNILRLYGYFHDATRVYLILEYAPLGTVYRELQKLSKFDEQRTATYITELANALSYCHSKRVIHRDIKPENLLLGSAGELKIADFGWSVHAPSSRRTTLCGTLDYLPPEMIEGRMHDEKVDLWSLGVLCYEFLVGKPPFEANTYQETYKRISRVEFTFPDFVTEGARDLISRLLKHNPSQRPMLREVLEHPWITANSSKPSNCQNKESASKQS

Aurora kinase B [1] = target: T2, Aurora kinase B (Homo sapiens, UniProt Q96GD4); assay: Inhibition of Aurora B (unknown origin) using Tamra-PKAtide as substrate by fluorescence polarization assay
T2 sequence (Q96GD4 whole entry): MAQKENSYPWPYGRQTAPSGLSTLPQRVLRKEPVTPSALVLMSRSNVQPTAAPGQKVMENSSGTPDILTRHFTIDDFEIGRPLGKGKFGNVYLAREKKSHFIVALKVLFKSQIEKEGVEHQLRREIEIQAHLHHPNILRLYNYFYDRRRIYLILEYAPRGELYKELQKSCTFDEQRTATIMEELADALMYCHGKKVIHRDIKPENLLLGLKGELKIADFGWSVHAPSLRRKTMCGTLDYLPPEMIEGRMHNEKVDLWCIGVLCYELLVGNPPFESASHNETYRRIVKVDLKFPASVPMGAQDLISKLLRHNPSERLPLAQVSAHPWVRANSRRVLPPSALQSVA

Aurora kinase B [2] = target: T2, Aurora kinase B; assay: Inhibition of Aurora B in human HCT116 cells assessed as reduction in phosphorylation of Histone H3 at Ser10 residue incubated for 1 hr by Hoechst 33342 dye-based immunofluorescence microscopic method; type: cell-based
[3] = AUC (0 to 6 hrs) in rat at 10 mg/kg, po; type: ADME, organism-based; parameters: time < 6 hr, dose 10 mg/kg, route oral; settings: in vivo
[4] = Apparent permeability from apical to basolateral side in human intestinal Caco2 cells; type: ADME, cell-based; settings: Caco-2
[5] = AUC (0 to 24 hrs) in rat at 30 mg/kg, po; type: ADME, organism-based; parameters: time < 24 hr, dose 30 mg/kg, route oral; settings: in vivo

Compound	IC50 (Aurora kinase A) [nM]	IC50 (Aurora kinase B [1]) [nM]	EC50 (Aurora kinase B [2]) [nM]	AUC(0-t) at 6 h [3] [µM·h]	Papp A→B [4] [×10⁻⁶ cm/s]	AUC(0-t) at 24 h [5] [µM·h]
Cc1cn2c(-c3cn[nH]c3)cnc2c(Nc2cc(C(NC(C)(C)C)c3ccccn3)ns2)n1 (racemic)	< 4	< 13	< 16	1.6		
Cc1cn2c(-c3cn[nH]c3)cnc2c(Nc2cc(Cc3cccc(C(=O)N4CCCCC4)n3)ns2)n1	< 4	< 13	245	0.1		
Cc1cn2c(-c3cn[nH]c3)cnc2c(Nc2cc(Cc3nccs3)ns2)n1	< 4	< 13	170	3.9		
COc1cccc(Cc2cc(Nc3nc(C)cn4c(-c5cn[nH]c5)cnc34)sn2)n1	< 4	< 13	356	5.5		
Cc1cn2c(-c3cn[nH]c3)cnc2c(Nc2cc(C(c3ccccn3)N3CCCC3)ns2)n1 (racemic)	< 4	< 13	< 16	0.02		
Cc1cn2c(-c3cn[nH]c3)cnc2c(Nc2cc(C(NC(C)(C)C)c3ccccn3)ns2)n1 (single isomer, unassigned; (-))	≤ 4	≤ 13	50			39
Cc1cn2c(-c3cn[nH]c3)cnc2c(Nc2cc(Cc3ncccn3)ns2)n1	< 4	< 13	203	1.8		
Cc1cn2c(-c3cn[nH]c3)cnc2c(Nc2cc(Cc3cccnc3)ns2)n1	< 4	< 13	> 1000			
Cc1cccc(Cc2cc(Nc3nc(C)cn4c(-c5cn[nH]c5)cnc34)sn2)n1	< 4	< 13	88	7.7		
Cc1cn2c(-c3cn[nH]c3)cnc2c(Nc2cc(Cn3cccc3)ns2)n1	< 4	< 13	530			
Cc1cn2c(-c3cn[nH]c3)cnc2c(Nc2cc(Cn3cccn3)ns2)n1	< 4	< 13	184			
Cc1cn2c(-c3cn[nH]c3)cnc2c(Nc2cc(Cc3cccc(F)n3)ns2)n1	< 4	< 13	100	7.3		

Now from value to compound, other results behind:

IC50 (Aurora kinase A) [nM]	IC50 (Aurora kinase B [1]) [nM]	EC50 (Aurora kinase B [2]) [nM]	AUC(0-t) at 6 h [3] [µM·h]	Papp A→B [4] [×10⁻⁶ cm/s]	Compound	AUC(0-t) at 24 h [5] [µM·h]
< 4	< 13	370			Cc1cn2c(-c3cn[nH]c3)cnc2c(Nc2cc(Cn3ccnc3)ns2)n1	
< 4	< 13	475	3.4		Cc1ccc(Cc2cc(Nc3nc(C)cn4c(-c5cn[nH]c5)cnc34)sn2)nc1	
< 4	< 13	< 16	0.21		Cc1cn2c(-c3cn[nH]c3)cnc2c(Nc2cc(C(c3ccccn3)N3CCCCC3)ns2)n1 (racemic)	
< 4	< 13	559			Cc1cn2c(-c3cn[nH]c3)cnc2c(Nc2cc(Cc3cccc(CO)n3)ns2)n1	
< 4	< 13	289			Cc1cn2c(-c3cn[nH]c3)cnc2c(Nc2cc(Cc3cccc(CN4CCCCC4)n3)ns2)n1	
< 4	< 13	486	5.5		Cc1cn2c(-c3cn[nH]c3)cnc2c(Nc2cc(Cc3ccc(F)cn3)ns2)n1	
< 4	< 13	83	0.45		Cc1cn2c(-c3cn[nH]c3)cnc2c(Nc2cc(C(c3ccccn3)N3CCC(F)CC3)ns2)n1 (racemic)	
< 4	< 13	182	1.4		Cc1cn2c(-c3cn[nH]c3)cnc2c(Nc2cc(Cc3ncccc3F)ns2)n1	
< 4	< 13	< 16	0.67		Cc1cn2c(-c3cn[nH]c3)cnc2c(Nc2cc(C(NC3CCCC3)c3ccccn3)ns2)n1 (racemic)	
< 4	< 13	> 1000			Cc1cn2c(-c3cn[nH]c3)cnc2c(Nc2cc(Cc3ccncc3)ns2)n1	
< 4	< 13	250	1.6		Cc1cn2c(-c3cn[nH]c3)cnc2c(Nc2cc(Cc3ncccc3C)ns2)n1	
< 4	< 13	487			Cc1cn2c(-c3cn[nH]c3)cnc2c(Nc2cc(Cn3cccc(C)c3=O)ns2)n1	
< 4	< 13	376	4.6		Cc1ccnc(Cc2cc(Nc3nc(C)cn4c(-c5cn[nH]c5)cnc34)sn2)c1	
< 4	< 13	208	0.15	4.3	Cc1cn2c(-c3cn[nH]c3)cnc2c(Nc2cc(Cc3cnccn3)ns2)n1	
